The structures appear in SMILES notation. Where only a bound is given, the exact number is not on record here.

The test system of one experiment is HCV genotype 2a. The experiment is described as follows: microbe, parasite or virus in culture. Type of experiment: cell-based. The settings on record: Hepatitis C virus, Huh7.5, read-out: HCV2a EC50.
Another experiment relates to HRV. The experiment is described as follows: Rhinovirus antiviral assay. Type of experiment: cell-based. The settings on record: Human rhinovirus sp.
A further experiment relates to Ebola. Nature of the experiment: microbe, parasite or virus in culture. As to conditions: Zaire ebolavirus, read-out: Ebola EC50. The experiment is classed as cell-based.
The next experiment deals with T1, PI3K p110g (Homo sapiens, UniProt P48736).
T1 construct: purchased Millipore
T1 sequence (P48736 whole entry): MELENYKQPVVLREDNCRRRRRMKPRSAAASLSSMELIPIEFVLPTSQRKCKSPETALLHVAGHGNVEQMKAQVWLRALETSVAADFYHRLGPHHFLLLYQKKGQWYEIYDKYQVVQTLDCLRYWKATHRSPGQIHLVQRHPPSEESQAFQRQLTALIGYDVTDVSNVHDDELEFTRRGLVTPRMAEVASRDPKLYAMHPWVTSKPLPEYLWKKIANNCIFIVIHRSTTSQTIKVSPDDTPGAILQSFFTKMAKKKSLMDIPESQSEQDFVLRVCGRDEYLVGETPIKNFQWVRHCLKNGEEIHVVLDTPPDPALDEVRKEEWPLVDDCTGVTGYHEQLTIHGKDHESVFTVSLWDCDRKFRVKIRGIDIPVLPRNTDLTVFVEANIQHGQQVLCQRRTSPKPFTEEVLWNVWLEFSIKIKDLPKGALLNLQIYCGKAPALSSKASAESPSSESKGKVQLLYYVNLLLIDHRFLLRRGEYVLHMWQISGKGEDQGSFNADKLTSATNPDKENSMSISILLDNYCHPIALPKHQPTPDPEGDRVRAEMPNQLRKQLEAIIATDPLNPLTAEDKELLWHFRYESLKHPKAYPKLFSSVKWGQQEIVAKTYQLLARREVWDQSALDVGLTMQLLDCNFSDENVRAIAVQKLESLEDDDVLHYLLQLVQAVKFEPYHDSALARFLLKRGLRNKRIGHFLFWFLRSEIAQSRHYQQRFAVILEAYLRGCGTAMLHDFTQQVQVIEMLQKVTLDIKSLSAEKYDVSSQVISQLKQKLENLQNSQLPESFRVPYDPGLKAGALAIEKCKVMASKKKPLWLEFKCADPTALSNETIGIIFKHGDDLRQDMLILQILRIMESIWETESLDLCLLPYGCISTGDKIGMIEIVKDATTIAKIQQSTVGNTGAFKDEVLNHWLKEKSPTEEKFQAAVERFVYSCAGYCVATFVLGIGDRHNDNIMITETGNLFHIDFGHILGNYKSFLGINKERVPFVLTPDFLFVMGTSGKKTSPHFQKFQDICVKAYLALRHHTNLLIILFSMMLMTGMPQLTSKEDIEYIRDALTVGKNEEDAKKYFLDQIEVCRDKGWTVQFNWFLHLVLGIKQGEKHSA
Nature of the experiment: PI3K p110g kinase assay. The experiment is classed as biochemical. How it is done: (§1) In the assays described here, p110α-p85 complex and p110γ were acquired from Millipore. Assays were performed with Lα-phosphatidylinositol (Avanti) as described in Knight et al. Nat Protoc. 2007; 2 (10):2459-66. Inhibitor series were prepared 10% DMSO as 5× stocks for the assay. Assays of HsVps34 were performed as described in Knight et al, except that the final assay buffer composition used was changed to 20 mM HEPES 7.5, 100 mM NaCl, 3 mM MgCl, 1 mg/mL PI and 44 nM hvps34 was used in the assay. […] COS-7 cells were cultured in 10 cm dishes and transfected at 70% confluence with 10 μg of plasmid DNA (HA-tagged bovine PI4KIIIβ, HA-tagged human PI4KIIIα) using Lipofectamine 2000 and 5 ml Opti-MEM following the manufacturer's instructions. After 5 hours the transfection medium was replaced with 10 ml complete DMEM. 36 hrs post transfection, cells were washed once with 5 ml PBS (pH 7.4) and lysed in 1 ml of lysis buffer (1) on ice. Lysates were collected by scraping and after 15 min they were centrifuged at 13,000 rpm for 10 min. To the lysates was added 200 μl of protein G Sepharose 4 fast flow beads that were prewashed with PBS and lysis buffer and 2 μg of anti-HA antibody. The tubes were then incubated overnight at 4 degrees C. in a tube rotator. The Sepharose beads in the lysate were washed twice with 150 mM NaCl in RIPA buffer, twice with RIPA buffer and once with kinase buffer (50 mM Tris/HCl, pH 7.5, 20 mM MgCl2, 1 mM EGTA, 1 mM PtdIns, 0.4% Triton X-100, 0.5 mg/mL BSA) and finally the beads were resuspended in 200 μL kinase buffer. Kinase reactions were run in a mixture of 45 μL of PI buffer (1 mM PI in kinase buffer), 10 μL of immunoprecipitated beads, 2 µL of inhibitors (dissolved and diluted in DMSO) or DMSO and 5 μL of [γ-^32P]-ATP (1 mM and 2 μCi/tube). The immunoprecipitates in PI buffer were pre-incubated with the drugs for 20 min prior the initiation of kinase reaction by adding ATP and the reactions were carried out for 30 min in 15 ml polypropolyne tubes. Reactions were terminated by addition of 3 ml of CHCl3:CH3OH:HCl (200:100:0.75) followed by 0.6 ml of 0.6N HCl to induce phase separation. The mixtures were vortexed, centrifuged at 2000 rpm for 2 min and the upper phase was discarded. To the lower phase was added 1.5 ml of CHCl3:CH3OH:0.6N HCl (3:48:47) and the mixture vortexed and centrifuged at 2000 rpm for 2 min. The lower phase was then transferred to counting vials and evaporated. Samples were counted in a scintillation beta counter after adding 5 ml of Instafluor (Perkin-Elmer).
(§2) PI-kinase assay: Compounds are tested in C.1.1. PI kinase assays as described by Shokat et al., “A membrane capture assay for lipid kinase activity.” Nat. Protoc. 2007; 2(10):2459-66.

For a further experiment, the system named is EV71. Nature of the experiment: EV71 antiviral assay. The settings on record: Enterovirus A. Type of experiment: cell-based.
The next experiment deals with Norovirus. The experiment is described as follows: Norovirus antiviral assay. The experiment is classed as cell-based.
The target of a further experiment is T2, PI4KIIIA (Homo sapiens, UniProt P42356).
T2 construct: made in house; host or cells: COS-7 cells, transient transfection, anti-HA immunoprecipitate on protein G Sepharose beads
T2 sequence (P42356 whole entry): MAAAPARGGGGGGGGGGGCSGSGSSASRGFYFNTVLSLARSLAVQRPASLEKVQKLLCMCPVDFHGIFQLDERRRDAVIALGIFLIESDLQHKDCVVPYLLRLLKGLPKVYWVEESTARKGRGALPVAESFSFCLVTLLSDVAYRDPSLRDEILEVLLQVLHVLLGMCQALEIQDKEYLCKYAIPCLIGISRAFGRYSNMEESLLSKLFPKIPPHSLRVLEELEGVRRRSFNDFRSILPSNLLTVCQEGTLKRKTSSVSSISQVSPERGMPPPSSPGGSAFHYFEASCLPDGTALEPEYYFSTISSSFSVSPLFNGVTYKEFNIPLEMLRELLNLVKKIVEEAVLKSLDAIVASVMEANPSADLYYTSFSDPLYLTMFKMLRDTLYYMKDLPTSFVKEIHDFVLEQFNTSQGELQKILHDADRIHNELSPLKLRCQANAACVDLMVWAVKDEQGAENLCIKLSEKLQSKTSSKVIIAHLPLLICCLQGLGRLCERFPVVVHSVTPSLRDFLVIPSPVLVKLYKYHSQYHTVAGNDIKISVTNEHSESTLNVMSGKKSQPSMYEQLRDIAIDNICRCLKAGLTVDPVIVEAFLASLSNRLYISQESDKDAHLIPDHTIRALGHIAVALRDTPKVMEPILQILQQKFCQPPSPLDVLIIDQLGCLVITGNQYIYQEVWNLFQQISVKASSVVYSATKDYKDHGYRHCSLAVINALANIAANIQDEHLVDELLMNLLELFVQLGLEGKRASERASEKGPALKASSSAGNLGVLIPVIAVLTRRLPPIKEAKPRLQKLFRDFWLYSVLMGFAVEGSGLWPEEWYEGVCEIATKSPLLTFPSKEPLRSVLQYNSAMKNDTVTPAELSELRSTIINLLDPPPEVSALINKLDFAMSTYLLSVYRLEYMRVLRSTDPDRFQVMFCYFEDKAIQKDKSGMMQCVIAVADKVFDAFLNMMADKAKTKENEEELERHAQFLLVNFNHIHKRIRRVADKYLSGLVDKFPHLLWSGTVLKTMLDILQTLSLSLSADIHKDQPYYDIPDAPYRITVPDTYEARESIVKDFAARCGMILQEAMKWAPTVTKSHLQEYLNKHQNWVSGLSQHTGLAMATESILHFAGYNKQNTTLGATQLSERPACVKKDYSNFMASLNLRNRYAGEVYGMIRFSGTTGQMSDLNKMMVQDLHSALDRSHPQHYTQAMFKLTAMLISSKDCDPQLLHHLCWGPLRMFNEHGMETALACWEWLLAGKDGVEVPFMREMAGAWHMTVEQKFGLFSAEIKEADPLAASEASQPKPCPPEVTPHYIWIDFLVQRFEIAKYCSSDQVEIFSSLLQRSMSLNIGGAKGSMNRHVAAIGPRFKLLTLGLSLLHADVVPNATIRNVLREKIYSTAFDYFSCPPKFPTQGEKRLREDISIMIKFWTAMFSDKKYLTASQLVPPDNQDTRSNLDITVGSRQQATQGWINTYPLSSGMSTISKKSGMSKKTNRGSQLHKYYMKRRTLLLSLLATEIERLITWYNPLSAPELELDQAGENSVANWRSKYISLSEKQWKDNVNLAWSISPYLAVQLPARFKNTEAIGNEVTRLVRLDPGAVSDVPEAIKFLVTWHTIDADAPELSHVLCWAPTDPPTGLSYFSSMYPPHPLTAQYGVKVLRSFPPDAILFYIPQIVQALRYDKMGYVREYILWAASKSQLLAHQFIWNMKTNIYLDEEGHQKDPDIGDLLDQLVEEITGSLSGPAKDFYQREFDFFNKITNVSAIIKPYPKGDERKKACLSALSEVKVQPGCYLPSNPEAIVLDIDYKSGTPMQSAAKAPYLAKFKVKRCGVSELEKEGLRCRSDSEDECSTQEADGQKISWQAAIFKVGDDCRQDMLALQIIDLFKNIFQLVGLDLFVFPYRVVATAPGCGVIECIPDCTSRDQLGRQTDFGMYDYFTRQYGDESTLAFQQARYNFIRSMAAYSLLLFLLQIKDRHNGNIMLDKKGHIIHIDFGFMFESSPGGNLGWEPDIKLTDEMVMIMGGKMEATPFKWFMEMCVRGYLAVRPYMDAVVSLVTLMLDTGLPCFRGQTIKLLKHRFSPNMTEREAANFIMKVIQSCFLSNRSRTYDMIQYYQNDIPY
The experiment is described as follows: PI4KIIIA kinase assay. The experiment is classed as biochemical. The method, then:
as §1, with “Reactions were terminated by addition of 3 ml of CHCl3:CH3OH:HCl (200:100:0.75) followed by 0.6 ml of 0.6N HCl to induce phase separation. The mixtures were vortexed, centrifuged at 2000 rpm for 2 min and the upper phase was discarded. To the lower phase was added 1.5 ml of CHCl3:CH3OH:0.6N HCl (3:48:47) and the mixture vortexed and centrifuged at 2000 rpm for 2 min. The lower phase was then transferred to counting vials and evaporated.” left out, “(Perkin-Elmer). […]” for “(Perkin-Elmer).”

The next experiment addresses T3, PI4KIIIB (Bos taurus, UniProt O02810).
T3 construct: made in house; host or cells: COS-7 cells, transient transfection, anti-HA immunoprecipitate on protein G Sepharose beads
The experiment is described as follows: PI4KIIIB kinase assay. Type of experiment: biochemical, bovine. How it is done: as §1, with “2007; 2 (10):2459-66.” left out, “for” for “for the assay. Assays of HsVps34 were performed as described in Knight et al, except that the final assay buffer composition used was changed to 20 mM HEPES 7.5, 100 mM NaCl, 3 mM MgCl, 1 mg/mL PI and 44 nM hvps34 was used in”, “Lysates were collected by scraping and after 15 min they were centrifuged at 13,000 rpm for 10 min.” left out, “The Sepharose beads in the lysate were washed twice with 150 mM NaCl in RIPA buffer, twice with RIPA buffer and once with kinase buffer (50 mM Tris/HCl, pH 7.5, 20 mM MgCl2, 1 mM EGTA, 1 mM PtdIns, 0.4% Triton X-100, 0.5 mg/mL BSA) and finally the beads were resuspended in 200 μL kinase buffer.” left out
PI-kinase assay: Compounds are tested in C.1.1. PI kinase assays as described by Shokat et al., “A membrane capture assay for lipid kinase activity.” Nat. Protoc.

A further experiment concerns the target T4, PI3KC2G (Homo sapiens, UniProt O75747).
T4 sequence (O75747 1-1486): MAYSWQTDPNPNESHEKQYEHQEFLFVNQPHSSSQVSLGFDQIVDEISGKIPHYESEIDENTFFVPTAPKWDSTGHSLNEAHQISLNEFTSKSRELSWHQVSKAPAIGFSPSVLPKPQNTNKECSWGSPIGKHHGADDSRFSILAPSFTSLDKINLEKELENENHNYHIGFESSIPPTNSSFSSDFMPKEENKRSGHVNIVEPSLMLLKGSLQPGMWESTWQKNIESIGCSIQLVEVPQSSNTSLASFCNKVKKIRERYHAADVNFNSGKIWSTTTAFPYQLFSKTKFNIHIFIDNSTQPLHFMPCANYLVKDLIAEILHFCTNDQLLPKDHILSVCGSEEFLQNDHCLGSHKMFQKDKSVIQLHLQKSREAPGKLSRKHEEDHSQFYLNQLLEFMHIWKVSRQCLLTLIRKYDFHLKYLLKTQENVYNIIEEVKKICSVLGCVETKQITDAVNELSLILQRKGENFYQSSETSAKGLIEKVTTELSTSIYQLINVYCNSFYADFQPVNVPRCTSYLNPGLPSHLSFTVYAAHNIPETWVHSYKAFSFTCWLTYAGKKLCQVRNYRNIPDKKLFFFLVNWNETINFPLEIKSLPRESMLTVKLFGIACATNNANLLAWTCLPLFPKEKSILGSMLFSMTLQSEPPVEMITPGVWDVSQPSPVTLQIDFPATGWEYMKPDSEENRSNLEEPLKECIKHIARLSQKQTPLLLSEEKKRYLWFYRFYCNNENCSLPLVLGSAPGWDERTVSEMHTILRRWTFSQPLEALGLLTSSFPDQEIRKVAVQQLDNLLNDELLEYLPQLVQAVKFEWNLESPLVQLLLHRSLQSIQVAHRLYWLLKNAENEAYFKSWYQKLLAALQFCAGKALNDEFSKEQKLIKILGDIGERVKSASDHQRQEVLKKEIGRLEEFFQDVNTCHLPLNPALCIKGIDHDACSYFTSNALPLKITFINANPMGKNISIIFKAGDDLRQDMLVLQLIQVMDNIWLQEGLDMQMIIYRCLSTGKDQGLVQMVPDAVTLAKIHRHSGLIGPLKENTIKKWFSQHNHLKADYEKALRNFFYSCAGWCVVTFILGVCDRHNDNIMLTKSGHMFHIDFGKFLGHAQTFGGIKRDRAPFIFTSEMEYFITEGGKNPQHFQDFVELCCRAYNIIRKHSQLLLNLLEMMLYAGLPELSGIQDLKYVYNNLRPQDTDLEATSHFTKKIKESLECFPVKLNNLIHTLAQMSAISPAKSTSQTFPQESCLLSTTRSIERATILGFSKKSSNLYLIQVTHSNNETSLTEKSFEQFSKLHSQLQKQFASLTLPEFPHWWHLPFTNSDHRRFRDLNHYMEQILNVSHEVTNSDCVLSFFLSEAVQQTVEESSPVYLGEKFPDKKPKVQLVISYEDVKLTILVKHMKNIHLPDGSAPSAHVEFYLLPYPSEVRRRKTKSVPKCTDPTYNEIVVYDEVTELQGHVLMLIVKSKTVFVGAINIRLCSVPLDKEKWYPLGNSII
Nature of the experiment: PI3KC2G kinase assay. Type of experiment: biochemical.

The target in the next experiment is PI3KC2B (Homo sapiens, UniProt O00750). The experiment is described as follows: PI3KC2B kinase assay. Type of experiment: biochemical. The method, then:
as §2

In another experiment the test system is HCV replicon. The experiment is described as follows: Resistance selection in HCV replicon system. The experiment is classed as cell-based.

Sequence of PI3KC2B (O00750 whole entry): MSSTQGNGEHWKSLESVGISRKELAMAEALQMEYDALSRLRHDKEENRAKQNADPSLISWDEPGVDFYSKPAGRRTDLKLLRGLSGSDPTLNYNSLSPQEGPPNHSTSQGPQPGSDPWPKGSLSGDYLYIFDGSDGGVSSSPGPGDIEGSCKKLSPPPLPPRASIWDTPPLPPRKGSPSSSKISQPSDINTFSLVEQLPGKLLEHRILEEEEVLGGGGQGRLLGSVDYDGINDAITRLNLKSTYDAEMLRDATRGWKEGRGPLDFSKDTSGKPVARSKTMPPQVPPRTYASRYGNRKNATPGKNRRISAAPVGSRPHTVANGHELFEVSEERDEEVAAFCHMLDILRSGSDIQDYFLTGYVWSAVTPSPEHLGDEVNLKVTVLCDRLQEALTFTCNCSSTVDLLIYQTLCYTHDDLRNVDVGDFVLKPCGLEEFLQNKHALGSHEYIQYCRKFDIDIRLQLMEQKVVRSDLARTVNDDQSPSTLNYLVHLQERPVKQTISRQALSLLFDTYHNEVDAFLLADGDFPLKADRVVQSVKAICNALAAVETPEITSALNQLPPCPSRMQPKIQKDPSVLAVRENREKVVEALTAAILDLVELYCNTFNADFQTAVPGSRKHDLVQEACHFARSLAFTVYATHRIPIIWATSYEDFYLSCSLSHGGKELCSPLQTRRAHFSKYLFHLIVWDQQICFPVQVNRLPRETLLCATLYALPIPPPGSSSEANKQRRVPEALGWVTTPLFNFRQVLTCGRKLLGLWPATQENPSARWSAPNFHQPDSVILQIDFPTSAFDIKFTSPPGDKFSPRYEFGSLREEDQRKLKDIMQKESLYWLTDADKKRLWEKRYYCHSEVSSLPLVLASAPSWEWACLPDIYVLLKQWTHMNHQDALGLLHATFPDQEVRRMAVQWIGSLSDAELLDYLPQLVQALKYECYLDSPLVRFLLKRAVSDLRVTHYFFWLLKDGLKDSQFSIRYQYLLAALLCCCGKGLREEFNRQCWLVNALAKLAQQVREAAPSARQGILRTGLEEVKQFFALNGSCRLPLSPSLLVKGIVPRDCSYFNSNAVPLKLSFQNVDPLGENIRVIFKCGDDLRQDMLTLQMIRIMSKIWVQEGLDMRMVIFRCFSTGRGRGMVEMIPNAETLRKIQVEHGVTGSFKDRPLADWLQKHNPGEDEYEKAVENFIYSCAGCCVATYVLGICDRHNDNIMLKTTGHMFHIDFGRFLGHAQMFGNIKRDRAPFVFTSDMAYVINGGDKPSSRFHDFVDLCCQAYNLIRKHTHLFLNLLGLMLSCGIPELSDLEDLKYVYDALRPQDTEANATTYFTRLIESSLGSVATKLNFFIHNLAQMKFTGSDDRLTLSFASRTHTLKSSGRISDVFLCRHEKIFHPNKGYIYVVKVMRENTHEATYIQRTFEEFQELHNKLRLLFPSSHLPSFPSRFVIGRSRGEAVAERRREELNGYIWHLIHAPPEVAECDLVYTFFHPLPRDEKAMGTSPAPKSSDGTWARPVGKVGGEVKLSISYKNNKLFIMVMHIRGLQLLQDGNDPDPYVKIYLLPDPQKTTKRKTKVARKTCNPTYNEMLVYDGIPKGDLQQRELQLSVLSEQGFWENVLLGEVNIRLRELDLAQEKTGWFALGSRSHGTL

As to `COc1ccc(-c2sc(NCC3CCCCC3)nc2C)cc1S(=O)(=O)Nc1cccc(C(C)(C)C)c1` [Compound S-32, N-(3-tert-butylphenyl)-5-[2-(cyclohexylmethylamino)-4-methyl-thiazol-5-yl]-2-methoxy-benzenesulfonamide; 2,2,2-trifluoroacetic acid], the 50% effective concentration (EC50) – broadly, the concentration giving half of the maximal effect – with HCV genotype 2a is 1000 to 10000 nM; in the experiment on HRV it was under 1 nM; in the experiment with Ebola it was 1000 to 10000 nM.

Turning to `COc1ccc(-c2sc(NC3CCCCCC3)nc2C)cc1S(=O)(=O)Nc1c(C)cccc1C` [Compound S-98, 5-[2-(cycloheptylamino)-4-methyl-thiazol-5-yl]-N-(2,6-dimethylphenyl)-2-methoxy-benzenesulfonamide; 2,2,2-trifluoroacetic acid], on PI3K p110g, the concentration for half-maximal inhibition (IC50) (commonly the concentration that gives 50% inhibition) is over 10000 nM. Moreover, the EC50 in the experiment on HCV genotype 2a was 1000 to 10000 nM; with HRV, under 1 nM; in the experiment with EV71 it was under 1 nM; in the experiment on Norovirus, 1000 to 10000 nM.

Regarding `COc1ccc(-c2sc(NCCC3CCCCC3)nc2C)cc1S(=O)(=O)NC1CCC(O)C1` (centres unmarked) [Compound S-214, 5-[2-(2-cyclohexylethylamino)-4-methyl-thiazol-5-yl]-N-(3-hydroxycyclopentyl)-2-methoxy-benzenesulfonamide], the IC50 against PI4KIIIA was over 10000 nM; against PI4KIIIB, 100 to 1000 nM; on PI3K p110g it was over 10000 nM; against PI3KC2G, over 10000 nM.

On to `COc1ccc(-c2sc(NC(=O)CC3CCOCC3)nc2C)cc1S(=O)(=O)Nc1ccc(O)cc1` [Compound S-227, N-[5-[3-[(4-hydroxyphenyl)sulfamoyl]-4-methoxy-phenyl]-4-methyl-thiazol-2-yl]-2-tetrahydropyran-4-yl-acetamide], for which the IC50 against PI3K p110g and against PI3KC2B was over 10000 nM each time. The 50% effective concentration (EC50) in the experiment on HCV genotype 2a is 1 to 100 nM; in the experiment on HRV it was 1 to 100 nM; with EV71, under 1 nM; with Ebola it was 100 to 1000 nM; in the experiment on Norovirus, 100 to 1000 nM.

In the case of `COc1ccc(-c2sc(NC(=O)C3CCCC3)nc2C)cc1S(=O)(=O)Nc1ccc(O)cc1` [PT423], in the experiment on HCV replicon, the Selection of resistance result was “resistance was not able to be selected”.

The values are drawn from US10428060B2, “PI-kinase inhibitors with anti-infective activity” (The Board of Trustees of the Leland Stanford Junior …, priority 2011, dated 2019).
